Experimental data as given in ChEMBL document CHEMBL4411340, “Tuning Nuclear Receptor Selectivity of Wy14,643 towards Selective Retinoid X Receptor Modulation” (J Med Chem, 2019).
Values after ≈ are worked out from the molar mass of the structure shown.

Key:
[1] = Metabolic stability in Sprague-Dawley rat liver microsomes assessed as remaining parent compound level at 10 uM preincubated for 5 mins with NADPH generating system followed by liver microsomes addition and measured after 60 mins by HPLC analysis; assay type: ADME, Microsome; conditions: read-out: Stability
[2] = Log D, lipophilicity of the compound by HPLC analysis; assay type: physicochemical
[3] = Aqueous solubility of the compound in distilled water after 24 hrs by HPLC analysis; assay type: physicochemical; conditions: for solubility at 24 h: distilled water; for solubility: buffer, 24 h
[4] = Ratio of drug uptake in C57BL6/JRj mouse brain to plasma at 10 mg/kg, po administered as single dose and measured after 2 hrs by LS-MS analysis; assay type: ADME, organism-based
[5] = Drug uptake in C57BL6/JRj mouse liver at 10 mg/kg, po administered as single dose and measured after 2 hrs by LS-MS analysis; assay type: ADME, organism-based; conditions: in vivo
[6] = Half life in C57BL6/JRj mouse at 10 mg/kg, po administered as single dose and measured after 2 hrs by LS-MS analysis; assay type: ADME, organism-based; conditions: in vivo
[7] = Drug uptake in C57BL6/JRj mouse plasma at 10 mg/kg, po administered as single dose and measured after 2 hrs by LS-MS analysis; assay type: ADME, organism-based; conditions: in vivo
[8] = Drug uptake in C57BL6/JRj mouse brain at 10 mg/kg, po administered as single dose and measured after 2 hrs by LS-MS analysis; assay type: ADME, organism-based; conditions: read-out: Drug uptake

remaining at 1 h, 10 µM [1] [%]	logD [2]	solubility at 24 h [3] [µg/mL]	solubility [3]	SMILES	further results
> 50				CCCCC(Sc1nc(Cl)cc(Nc2cccc(C)c2C)n1)C(=O)O (stereo not given)	
	4.74	0.3 (≈ 0.861 µM)		C=C(c1ccc(C(=O)O)cc1)c1cc2c(cc1C)C(C)(C)CCC2(C)C [BEXAROTENE]	
> 50			Soluble	CN(c1cc(C(F)(F)F)nc(OCCC(=O)O)n1)c1cccc2c1CCC2	BPR [4]: 1.5%; Drug uptake [5]: Active; half-life [6]: 4.2 h; Drug uptake [7]: Active; concentration at 2 h [8]: 275 ng/g
> 50			Soluble	O=C(O)CSc1nc(Cl)cc(Nc2cccc3c2CCCC3)n1	
> 50	1.63	48.6 (≈ 150 µM)		Cc1cccc(Nc2cc(Cl)nc(SCC(=O)O)n2)c1C [PIRINIXIC ACID]	
